From patent publication US12171230B2, “Herbicidal compositions” (Bayer Aktiengesellschaft, priority 2018, dated 2024)

Tests used:
Format in all cases: in vivo
Pharbitis purpurea = assay: Post-emergence herbicidal action against Pharbitis purpurea; conditions: post-emergence
Procedure: (§1) When the observed efficacies exceed the formal sum total of the values of the tests with individual applications, they also exceed the expected value according to Colby, which is calculated using the formula below and is likewise regarded as an indication of synergism (cf. S. R. Colby; in Weeds 15 (1967) p. 20 to 22): E^C=A+B−([…])
(§2) Here: • A=efficacy of the active compound (A) in % at an application rate of a g a.i./ha; • B=efficacy of the active compound (B) in % at an application rate of b g a.i./ha; • E^C=expected value of the effect of the combination (A)+(B) in % at the combined application rate a+b g a.i./ha.
(§3) Seeds or rhizome pieces of mono- and dicotyledonous weeds are placed in sandy loam in pots, covered with soil and grown in a greenhouse under good growth conditions (temperature, air humidity, water supply). Three weeks after sowing, the test plants were treated at the three-leaf stage with the compositions according to the invention. The compositions according to the invention formulated as spray powders or as emulsion concentrates were sprayed onto the green plant parts in various dosages with an application rate of 300 to 800 l/ha of water (equivalent). After the test plants have been left to stand in the greenhouse under optimal growth conditions for about 3 to 4 weeks, the action of the preparations is scored visually in comparison to untreated controls. The compositions according to the invention also have good post-emergence herbicidal activity against a broad spectrum of economically important gramineous and broadleaf weeds.

Amaranthus palmeri = assay: Post-emergence herbicidal action against Amaranthus palmeri; conditions: Amaranthus palmeri, post-emergence, 504 h, read-out: Herbicidal action 21 DAT [%] against Amaranthus palmeri
Procedure: as §1, §2, §3

Abutilon theophrasti = assay: Post-emergence herbicidal action against Abutilon theophrasti
Text: (§4) The following abbreviations are used in the description and the tables that follow: • g of a.i./ha=grams of active substance (active ingredient) (=100% active compound) per hectare; • The sum total of the effects of the individual applications is reported under E^A; • expected values according to Colby are each reported under E^C.
(§5) The rating period is reported in days after application (DAT).

Bidens pilosa = assay: Post-emergence herbicidal action against Bidens pilosa; conditions: post-emergence, 21 DAT
Procedure: as §1, §2, §3

Centaurea cyano = assay: Post-emergence herbicidal action against Centaurea cyano
Procedure: Seeds or rhizome pieces of mono- and dicotyledonous weeds are placed in sandy loam in pots, covered with soil and grown in a greenhouse under good growth conditions (temperature, air humidity, water supply). Three weeks after sowing, the test plants were treated at the three-leaf stage with the compositions according to the invention. The compositions according to the invention formulated as spray powders or as emulsion concentrates were sprayed onto the green plant parts in various dosages with an application rate of 300 to 800 l/ha of water (equivalent).

Veronica hederifolia = assay: Post-emergence herbicidal action against Veronica hederifolia
Text: as §4, §5

Lolium rigidum = assay: Post-emergence herbicidal action against Lolium rigidum
Text: as §4, §5

Bromus sterilis = assay: Post-emergence herbicidal action against Bromus sterilis
Text: as §4, §5

Phalaris minor = assay: Post-emergence herbicidal action against Phalaris minor
Text: as §4, §5

Viola tricolor = assay: Post-emergence herbicidal action against Viola tricolor
Text: as §4, §5

Matricaria inodora = assay: Post-emergence herbicidal action against Matricaria inodora; conditions: 33 g of a.i./ha
Galium aparine = assay: Post-emergence herbicidal action against Galium aparine
Procedure: as §1, §2, §3

Poa annua = assay: Post-emergence herbicidal action against Poa annua
Procedure: as §1, §2, §3

[1] = tested on: Lolium rigidum (resistant biotype); assay: Post-emergence herbicidal action against Lolium rigidum (resistant biotype)
Text: as §4, §5

Lamium purpureum = assay: Post-emergence herbicidal action against Lamium purpureum; conditions: 100 g of a.i./ha
Procedure: as §1, §2, §3

Alopecurus myosuroides = assay: Post-emergence herbicidal action against Alopecurus myosuroides
Text: as §4, §5

Digitaria sanguinalis = assay: Post-emergence herbicidal action against Digitaria sanguinalis; conditions: 12 g of a.i./ha, post-emergence
Procedure: as §1, §2, §3

Brachiaria platyphylla = assay: Post-emergence herbicidal action against Brachiaria platyphylla; conditions: 4 g of a.i./ha, post-emergence, block with (B9.10) Saflufenacil
Procedure: as §1, §2, §3

C[n+]1ccc(-c2cc[n+](C)cc2)cc1 [(B5.37) Paraquat]
Herbicidal action 21 DAT [%] against Pharbitis purpurea (Pharbitis purpurea; 21 DAT, 5 g of a.i./ha): 15%
pest or weed control at 5 g/ha (Amaranthus palmeri): 0%
pest or weed control at 45 g/ha (Amaranthus palmeri): 10%
Herbicidal action 21 DAT [%] against Abutilon theophrasti (Abutilon theophrasti; 5 g of a.i./ha): 0%
Herbicidal action 21 DAT [%] against Abutilon theophrasti (Abutilon theophrasti; 45 g of a.i./ha): 10%
Herbicidal action 21 DAT [%] against Bidens pilosa (Bidens pilosa; 5 g of a.i./ha): 0%
Herbicidal action 21 DAT [%] against Bidens pilosa (Bidens pilosa; 45 g of a.i./ha): 10%

CC(C)N(C(=O)COc1nnc(C(F)(F)F)s1)c1ccc(F)cc1 [(B2.28) Flufenacet]
Herbicidal action 28 DAT against Centaurea cyanus (Centaurea cyano; 100 g of a.i./ha): 20%
Herbicidal action 14 DAT against Centaurea cyanus (Centaurea cyano; 300 g of a.i./ha): 30%
Herbicidal action 14 DAT against Veronica hederifolia (Veronica hederifolia; 33 g of a.i./ha): 35%
Herbicidal action 14 DAT against Veronica hederifolia (Veronica hederifolia; 100 g of a.i./ha): 40%
Herbicidal action 14 DAT against Lolium rigidum (Lolium rigidum; 33 g of a.i./ha): 0%
Herbicidal action 14 DAT against Lolium rigidum (Lolium rigidum; 100 g of a.i./ha): 35%
Herbicidal action 28 DAT against Lolium rigidum (Lolium rigidum; 100 g of a.i./ha): 20%
Herbicidal action 14 DAT against Lolium rigidum (Lolium rigidum; 300 g of a.i./ha): 40%
Herbicidal action 28 DAT against Lolium rigidum (Lolium rigidum; 300 g of a.i./ha): 25%
Herbicidal action 14 DAT against Bromus sterilis (Bromus sterilis; 33 g of a.i./ha): 35%
Herbicidal action 14 DAT against Bromus sterilis (Bromus sterilis; 100 g of a.i./ha): 75%
Herbicidal action 28 DAT against Bromus sterilis (Bromus sterilis; 100 g of a.i./ha): 25%
Herbicidal action 28 DAT against Bromus sterilis (Bromus sterilis; 300 g of a.i./ha): 65%
Herbicidal action 28 DAT against Phalaris minor (Phalaris minor; 33 g of a.i./ha): 0%
Herbicidal action 28 DAT against Phalaris minor (Phalaris minor; 100 g of a.i./ha): 40%
Herbicidal action 28 DAT against Phalaris minor (Phalaris minor; 300 g of a.i./ha): 85%
Herbicidal action 14 DAT against Viola tricolor (Viola tricolor; 33 g of a.i./ha): 20%
Herbicidal action 28 DAT against Viola tricolor (Viola tricolor; 33 g of a.i./ha): 20%
Herbicidal action 14 DAT against Viola tricolor (Viola tricolor; 100 g of a.i./ha): 50%
Herbicidal action 28 DAT against Viola tricolor (Viola tricolor; 100 g of a.i./ha): 20%
Herbicidal action 28 DAT against Viola tricolor (Viola tricolor; 300 g of a.i./ha): 35%
Herbicidal action 14 DAT against Matricaria inodora (Matricaria inodora): 0%
Herbicidal action 28 DAT against Galium aparine (Galium aparine; 33 g of a.i./ha): 60%
Herbicidal action 28 DAT against Galium aparine (Galium aparine; 100 g of a.i./ha): 65%
Herbicidal action 28 DAT against Poa annua L. (Poa annua; 33 g of a.i./ha): 10%
Herbicidal action 28 DAT against Poa annua L. (Poa annua; 100 g of a.i./ha): 70%
Herbicidal action 28 DAT against Poa annua L. (Poa annua; 300 g of a.i./ha): 65%
Herbicidal action 14 DAT against Lolium rigidum (resistant biotype) ([1]; 100 g of a.i./ha): 20%
Herbicidal action 28 DAT against Lolium rigidum (resistant biotype) ([1]; 100 g of a.i./ha): 10%
Herbicidal action 14 DAT against Lolium rigidum (resistant biotype) ([1]; 300 g of a.i./ha): 10%
Herbicidal action 28 DAT against Lolium rigidum (resistant biotype) ([1]; 300 g of a.i./ha): 20%
Herbicidal action 14 DAT against Lamium purpureum L. (Lamium purpureum): 40%
Herbicidal action 28 DAT against Lamium purpureum L. (Lamium purpureum): 20%
Herbicidal action 14 DAT against Alopecurus myosuroides (Alopecurus myosuroides; 100 g of a.i./ha): 70%
Herbicidal action 28 DAT against Alopecurus myosuroides (Alopecurus myosuroides; 300 g of a.i./ha): 75%

CC(C)N(C)S(=O)(=O)NC(=O)c1cc(-n2c(=O)cc(C(F)(F)F)n(C)c2=O)c(F)cc1Cl [(B9.10) Saflufenacil, saflufenacil, reference compound]
Herbicidal action 21 DAT [%] against Digitaria sanguinalis (Digitaria sanguinalis): 50%
Herbicidal action 21 DAT [%] against Pharbitis purpurea (Pharbitis purpurea; 1.3 g of a.i./ha): 30%
Herbicidal action 21 DAT [%] against Brachiaria platyphylla (Brachiaria platyphylla): 25%
pest or weed control at 1.3 g/ha (Amaranthus palmeri; 1.3 g of a.i./ha, block with (B9.10) Saflufenacil): 70%
